{"source": "patent US20240251790A1", "about": "(priority 2021, published 2024)", "key": {"[1]": {"test_system": "coliforms (ECC)", "assay_type": "cell-based"}, "[2]": {"test_system": "yeast and mold (YM)", "assay_type": "cell-based", "conditions": "500 ppm PAA"}, "[3]": {"conditions": "germinated barley, 500 ppm PAA, pH = 9.0, 30 seconds"}, "[4]": {"conditions": "steeped barley, 500 ppm PAA, pH = 3.1 (unadjusted), 30 seconds, 20° C."}, "[5]": {"conditions": "steeped barley, 500 ppm PAA, pH = 6.5, 5 s"}, "[6]": {"conditions": "steeped barley, 500 ppm PAA, pH = 6.5, 30 s"}, "[7]": {"conditions": "steeped barley, 500 ppm PAA, pH = 9, 5 s"}, "[8]": {"conditions": "steeped barley, 500 ppm PAA, pH = 9, 30 s"}, "[9]": {"conditions": "steeped barley, 500 ppm PAA, pH = 9.0, 30 seconds, 20° C."}, "[10]": {"conditions": "steeped barley, 500 ppm PAA, pH = 9, 10 min"}, "[11]": {"conditions": "steeped barley, 500 ppm PAA, pH = 10.0, 5 s"}, "[12]": {"conditions": "steeped barley, 500 ppm PAA, pH = 10.0, 30 s"}, "[13]": {"conditions": "steeped barley, 500 ppm PAA, unadjusted (pH=3.1), 5 s"}, "[14]": {"conditions": "steeped barley, 500 ppm PAA, unadjusted (pH=3.1), 30 s"}, "[15]": {"conditions": "test on day 2, treated once, day 2 (after steeping), 500 ppm PAA, 2:1, 10 minutes, 20° C."}, "[16]": {"conditions": "test on day 4, treated once, day 2, 500 ppm PAA, 10 minutes"}, "[17]": {"conditions": "test on day 4, treated twice, days 2 and 4, 500 ppm PAA, 10 min each"}, "[18]": {"conditions": "germinated barley treated before kilning, pH = 3, 30 s, testing after germination, * = complete kill"}, "[19]": {"conditions": "germinated barley treated before kilning, pH = 3, 30 s, testing after kilning, * = complete kill"}, "[20]": {"conditions": "germinated barley treated before kilning, pH = 9, 30 s, testing after germination"}, "[21]": {"conditions": "germinated barley treated before kilning, pH = 9, 30 s, testing after kilning, * = complete kill"}, "[22]": {"conditions": "germinated barley, pH = 3.1, 30 seconds"}, "[23]": {"conditions": "germinated barley, pH = 9.0, 30 seconds"}, "[24]": {"conditions": "steeped barley, pH = 3.1 (unadjusted), 30 seconds, 20° C."}, "[25]": {"conditions": "steeped barley, pH = 9.0, 30 seconds, 20° C."}, "[26]": {"conditions": "steeped barley, pH = 10.0, 30 s"}, "[27]": {"conditions": "steeped barley, unadjusted (pH=3.1), 5 s"}, "[28]": {"conditions": "steeped barley, unadjusted (pH=3.1), 30 s"}}, "note": "Values joined by “and” are separate entries in the source; they are usually repeats but may differ in a detail not shown here. Equal entries are not always repeated. Where two headings read alike, the source gives them in different places.", "data": [{"compound": "CC(=O)OO", "note": "[PAA, peracetic acid]", "values": [{"measurement": "ECC Log10 Reduction", "setting": "[1]; germinated barley, 500 ppm PAA, pH = 3.1, 30 seconds", "value": 1.16, "unit": "Log10"}, {"measurement": "ECC Log10 (CFU/10 g barley grains)", "setting": "[1]; [3]", "value": 7.39, "unit": "Log10"}, {"measurement": "ECC Log10 Reduction", "setting": "[1]; [3]", "value": 0.60, "unit": "Log10"}, {"measurement": "ECC Log10 (CFU/10 g barley grains)", "setting": "[1]; [4]", "value": 5.99, "unit": "Log10"}, {"measurement": "ECC Log10 Reduction", "setting": "[1]; [4]", "value": 1.91, "unit": "Log10"}, {"measurement": "ECC Log10", "setting": "[1]; [5]", "value": 5.94, "unit": "Log10"}, {"measurement": "ECC Log10 Reduction", "setting": "[1]; [5]", "value": 1.66, "unit": "Log10"}, {"measurement": "ECC Log10", "setting": "[1]; [6]", "value": 5.26, "unit": "Log10"}, {"measurement": "ECC Log10 Reduction", "setting": "[1]; [6]", "value": 2.34, "unit": "Log10"}, {"measurement": "ECC Log10", "setting": "[1]; [7]", "value": 5.48, "unit": "Log10"}, {"measurement": "ECC Log10 Reduction", "setting": "[1]; [7]", "value": 1.73, "unit": "Log10"}, {"measurement": "ECC Log10", "setting": "[1]; [8]", "value": 4.78, "unit": "Log10"}, {"measurement": "ECC Log10 Reduction", "setting": "[1]; [8]", "value": 2.43, "unit": "Log10"}, {"measurement": "ECC Log10 (CFU/10 g barley grains)", "setting": "[1]; [9]", "value": 5.79, "unit": "Log10"}, {"measurement": "ECC Log10 Reduction", "setting": "[1]; [9]", "value": 2.11, "unit": "Log10"}, {"measurement": "ECC Log10", "setting": "[1]; [10]", "value": 3.63, "unit": "Log10"}, {"measurement": "ECC Log10 Reduction", "setting": "[1]; [10]", "value": 3.57, "unit": "Log10"}, {"measurement": "ECC Log10", "setting": "[1]; [11]", "value": 6.49, "unit": "Log10"}, {"measurement": "ECC Log10 Reduction", "setting": "[1]; [11]", "value": 1.11, "unit": "Log10"}, {"measurement": "ECC Log10", "setting": "[1]; [12]", "value": 5.27, "unit": "Log10"}, {"measurement": "ECC Log10 Reduction", "setting": "[1]; [12]", "value": 2.33, "unit": "Log10"}, {"measurement": "ECC Log10", "setting": "[1]; [13]", "value": 4.60, "unit": "Log10"}, {"measurement": "ECC Log10 Reduction", "setting": "[1]; [13]", "value": 2.60, "unit": "Log10"}, {"measurement": "ECC Log10", "setting": "[1]; [14]", "value": 2.60, "unit": "Log10"}, {"measurement": "ECC Log10 Reduction", "setting": "[1]; [14]", "value": 4.60, "unit": "Log10"}, {"measurement": "ECC Log10", "setting": "[1]; [15]", "value": 0.00, "unit": "Log10"}, {"measurement": "ECC Log10 Reduction", "setting": "[1]; [15]", "value": 4.36, "unit": "Log10"}, {"measurement": "ECC Log10", "setting": "[1]; [16]", "value": 5.41, "unit": "Log10"}, {"measurement": "ECC Log10 Reduction", "setting": "[1]; [16]", "value": "1.8 Log10 and 1.82 Log10"}, {"measurement": "ECC Log10", "setting": "[1]; [17]", "value": 4.95, "unit": "Log10"}, {"measurement": "ECC Log10 Reduction", "setting": "[1]; [17]", "value": 2.28, "unit": "Log10"}, {"measurement": "kill of ECC microorganisms", "setting": "[1]; unadjusted PAA 500 ppm, treated after germination", "value": "complete kill"}, {"measurement": "YM Log10", "setting": "[2]; [18]", "value": "0.00* Log10"}, {"measurement": "YM Log10 Reduction", "setting": "[2]; [18]", "value": "4.67* Log10"}, {"measurement": "YM Log10", "setting": "[2]; [19]", "value": "0.00* Log10"}, {"measurement": "YM Log10 Reduction", "setting": "[2]; [19]", "value": "2.00* Log10"}, {"measurement": "YM Log10", "setting": "[2]; [20]", "value": 2.92, "unit": "Log10"}, {"measurement": "YM Log10 Reduction", "setting": "[2]; [20]", "value": 1.75, "unit": "Log10"}, {"measurement": "YM Log10", "setting": "[2]; [21]", "value": "0.00* Log10"}, {"measurement": "YM Log10 Reduction", "setting": "[2]; [21]", "value": "2.00* Log10"}, {"measurement": "YM Log10 (CFU/10 g barley grains)", "setting": "[2]; [22]", "value": 3.60, "unit": "Log10"}, {"measurement": "YM Log10 Reduction", "setting": "[2]; [22]", "value": 1.86, "unit": "Log10"}, {"measurement": "YM Log10 (CFU/10 g barley grains)", "setting": "[2]; [23]", "value": 3.83, "unit": "Log10"}, {"measurement": "YM Log10 Reduction", "setting": "[2]; [23]", "value": 1.63, "unit": "Log10"}, {"measurement": "YM Log10 (CFU/10 g barley grains)", "setting": "[2]; [24]", "value": 3.84, "unit": "Log10"}, {"measurement": "YM Log10 Reduction", "setting": "[2]; [24]", "value": 1.75, "unit": "Log10"}, {"measurement": "YM Log10", "setting": "[2]; steeped barley, pH = 6.5, 5 s", "value": 1.30, "unit": "Log10"}, {"measurement": "YM Log10 Reduction", "setting": "[2]; steeped barley, pH = 6.5, 5 s", "value": 2.46, "unit": "Log10"}, {"measurement": "YM Log10", "setting": "[2]; steeped barley, pH = 6.5, 30 s", "value": 0.00, "unit": "Log10"}, {"measurement": "YM Log10 Reduction", "setting": "[2]; steeped barley, pH = 6.5, 30 s", "value": 3.76, "unit": "Log10"}, {"measurement": "YM Log10", "setting": "[2]; steeped barley, pH = 9, 5 s", "value": 3.86, "unit": "Log10"}, {"measurement": "YM Log10 Reduction", "setting": "[2]; steeped barley, pH = 9, 5 s", "value": 0.62, "unit": "Log10"}, {"measurement": "YM Log10", "setting": "[2]; steeped barley, pH = 9, 30 s", "value": 2.60, "unit": "Log10"}, {"measurement": "YM Log10 Reduction", "setting": "[2]; steeped barley, pH = 9, 30 s", "value": 1.88, "unit": "Log10"}, {"measurement": "YM Log10 (CFU/10 g barley grains)", "setting": "[2]; [25]", "value": 4.06, "unit": "Log10"}, {"measurement": "YM Log10 Reduction", "setting": "[2]; [25]", "value": 1.53, "unit": "Log10"}, {"measurement": "YM Log10", "setting": "[2]; steeped barley, pH = 9, 10 min", "value": 2.80, "unit": "Log10"}, {"measurement": "YM Log10 Reduction", "setting": "[2]; steeped barley, pH = 9, 10 min", "value": 1.79, "unit": "Log10"}, {"measurement": "YM Log10", "setting": "[2]; steeped barley, pH = 10.0, 5 s", "value": 3.52, "unit": "Log10"}, {"measurement": "YM Log10 Reduction", "setting": "[2]; steeped barley, pH = 10.0, 5 s", "value": 0.24, "unit": "Log10"}, {"measurement": "YM Log10", "setting": "[2]; [26]", "value": 3.16, "unit": "Log10"}, {"measurement": "YM Log10 Reduction", "setting": "[2]; [26]", "value": 0.60, "unit": "Log10"}, {"measurement": "YM Log10", "setting": "[2]; [27]", "value": 2.95, "unit": "Log10"}, {"measurement": "YM Log10 Reduction", "setting": "[2]; [27]", "value": 1.53, "unit": "Log10"}, {"measurement": "YM Log10", "setting": "[2]; [28]", "value": 0.00, "unit": "Log10"}, {"measurement": "YM Log10 Reduction", "setting": "[2]; [28]", "value": 4.48, "unit": "Log10"}]}]}
